From the CheMixHub viscosity set

Experiment: xn = mol fraction of the nth substance listed

CCCCN + CCO
viscosity [mPa·s]
Settings	298.15 K	303.15 K	313.15 K
100 kPa, x2 = 0.102	0.514	–	–
100 kPa, x2 = 0.15	0.542	–	–
100 kPa, x2 = 0.295	0.626	–	–
100 kPa, x2 = 0.449	0.749	–	–
100 kPa, x2 = 0.501	0.791	–	–
100 kPa, x2 = 0.595	0.872	–	–
100 kPa, x2 = 0.68	0.931	–	–
100 kPa, x2 = 0.752	0.977	–	–
100 kPa, x2 = 0.897	1.051	–	–
101.33 kPa, x1 = 0.1093	–	0.9614	0.7843
101.33 kPa, x1 = 0.1943	–	0.9273	0.747
101.33 kPa, x1 = 0.2825	–	0.8774	0.7048
101.33 kPa, x1 = 0.4151	–	0.7915	0.6383
101.33 kPa, x1 = 0.5136	–	0.7146	0.5888
101.33 kPa, x1 = 0.6128	–	0.6369	0.5355
101.33 kPa, x1 = 0.7066	–	0.5687	0.4844
101.33 kPa, x1 = 0.8039	–	0.5095	0.4428
101.33 kPa, x1 = 0.894	–	0.4717	0.4132

CC[N+](=O)[O-] + CCO
viscosity [mPa·s], 101.33 kPa
Settings	293.15 K	303.15 K	313.15 K
x2 = 0.05	0.669	0.598	0.538
x2 = 0.1001	0.655	0.584	0.526
x2 = 0.15	0.648	0.576	0.519
x2 = 0.2	0.645	0.573	0.512
x2 = 0.25	0.65	0.57	0.507
x2 = 0.3	0.651	0.571	0.506
x2 = 0.35	0.658	0.575	0.509
x2 = 0.4	0.668	0.583	0.513
x2 = 0.45	0.681	0.593	0.519
x2 = 0.5	0.697	0.603	0.528
x2 = 0.55	0.716	0.618	0.538
x2 = 0.6	0.738	0.636	0.55
x2 = 0.65	0.769	0.656	0.567
x2 = 0.7	0.804	0.682	0.586
x2 = 0.7499	0.839	0.712	0.608
x2 = 0.8	0.886	0.748	0.637
x2 = 0.8499	0.944	0.793	0.672
x2 = 0.9	1.015	0.847	0.715
x2 = 0.9499	1.103	0.914	0.77

Cc1ccncc1 + CCO
298.15 K, 101.33 kPa
Settings	viscosity [mPa·s]
x2 = 0.119	0.878
x2 = 0.2179	0.8832
x2 = 0.3335	0.8963
x2 = 0.426	0.9084
x2 = 0.5813	0.9345
x2 = 0.7893	0.9902
x2 = 0.8494	1.015
x2 = 0.9031	1.041

O=C(O)C(Cl)(Cl)Cl + CCOC(=O)c1ccccc1
298.15 K, 101 kPa
Settings	viscosity [mPa·s]
x1 = 0.08874	2.324
x1 = 0.2096	2.93
x1 = 0.3125	3.711
x1 = 0.3982	4.61
x1 = 0.4907	5.848
x1 = 0.5795	7.068
x1 = 0.6758	8.374

CCCCN + CCOC(C)=O
303.15 K, 101 kPa
Settings	viscosity [mPa·s]
x1 = 0.1573	0.4484
x1 = 0.2361	0.4671
x1 = 0.312	0.4741
x1 = 0.4217	0.4759
x1 = 0.5671	0.476
x1 = 0.6505	0.4772
x1 = 0.7907	0.4779
x1 = 0.8803	0.4928

O=C(O)C(Cl)(Cl)Cl + CCOC(C)=O
298.15 K, 101 kPa
Settings	viscosity [mPa·s]
x1 = 0.1118	0.5878
x1 = 0.184	0.7309
x1 = 0.2807	1.001
x1 = 0.3846	1.449
x1 = 0.4878	2.176
x1 = 0.6142	3.467
x1 = 0.7008	4.709

CCCCN + CCOCCO
308.15 K, 101 kPa
Settings	viscosity [mPa·s]
x2 = 0.0802	0.5335
x2 = 0.2044	0.6473
x2 = 0.3059	0.7671
x2 = 0.4065	0.8896
x2 = 0.5068	1.007
x2 = 0.6065	1.115
x2 = 0.7058	1.209
x2 = 0.9024	1.376
